Source: US20180057507A1, “INHIBITORS OF DUAL LEUCINE ZIPPER (DLK) KINASE FOR THE TREATMENT OF DISEASE” (Board of Regents, The University of Texas System, priority 2016, published 2018)

Assays:
human DLK [1] = target: T1, human DLK (Homo sapiens, UniProt Q12852); test: Phospho-cJun Cellular Assay; format: cell-based; parameters: expressed in transfected cells; settings: HEK293 cells stably transfected with Dox-inducible human DLK; p-cJun (Ser63); 5 h compound incubation
T1 sequence (Q12852 1-859): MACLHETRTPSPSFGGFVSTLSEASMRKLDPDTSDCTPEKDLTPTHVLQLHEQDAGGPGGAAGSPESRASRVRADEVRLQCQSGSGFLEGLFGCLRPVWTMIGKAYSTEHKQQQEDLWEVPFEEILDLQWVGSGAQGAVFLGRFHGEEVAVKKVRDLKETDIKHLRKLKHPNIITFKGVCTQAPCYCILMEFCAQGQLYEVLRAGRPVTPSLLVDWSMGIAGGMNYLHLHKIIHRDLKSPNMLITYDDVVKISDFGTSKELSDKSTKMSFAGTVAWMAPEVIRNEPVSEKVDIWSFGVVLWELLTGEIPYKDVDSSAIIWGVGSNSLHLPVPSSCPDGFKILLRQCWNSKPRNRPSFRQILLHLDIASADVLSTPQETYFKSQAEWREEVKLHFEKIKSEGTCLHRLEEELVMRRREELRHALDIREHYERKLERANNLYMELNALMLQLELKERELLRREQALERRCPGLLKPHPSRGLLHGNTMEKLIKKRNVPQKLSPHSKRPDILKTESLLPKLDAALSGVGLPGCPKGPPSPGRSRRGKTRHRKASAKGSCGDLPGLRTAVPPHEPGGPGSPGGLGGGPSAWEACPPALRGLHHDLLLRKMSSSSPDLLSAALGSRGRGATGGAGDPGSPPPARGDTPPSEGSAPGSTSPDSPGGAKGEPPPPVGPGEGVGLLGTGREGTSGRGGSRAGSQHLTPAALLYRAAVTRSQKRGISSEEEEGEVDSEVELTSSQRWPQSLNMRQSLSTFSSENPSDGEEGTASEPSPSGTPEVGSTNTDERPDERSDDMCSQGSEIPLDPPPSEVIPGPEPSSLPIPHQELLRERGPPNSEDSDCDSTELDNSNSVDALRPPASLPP
Experimental: Phospho-cJun Cellular Assay
HEK293 cells stably transfected with a Dox-inducible human DLK were plated into a 384-well plate in 20 μl (40,000 cells/well) of DMEM medium (without phenol red) containing 10% fetal bovine serum, 1.5 μg/ml doxycycline and 1 μg/ml puromycin. The cells as negative control were grown in the absence of doxycycline. The plate was incubated at 37° C., 5% CO2 for 20 h, before DMSO (control) or compounds diluted in medium were added. The cells were incubated at 37° C. for an additional 5 h, followed by lysis and the addition detection antibodies from p-cJun (Ser63) cellular assay kit (Cisbio) per manufacturer protocol. The standard dose response curves were fitted by Genedata Screener software using the variable-slope model: Signal=Signalnegative control+(SignalDMSO control−Signalnegative control)/(1+(IC50/Dose)̂Hill slope). Only signal and dose in the equation were treated as known values.

human DLK [2] = target: T1, human DLK; test: DLK Kd Determinations (KINOMEscan KdELECT, DiscoveRx); parameters: full length of human DLK (amino acids 1-859); host or cells: transiently transfected HEK293 cells; unpurified extract; settings: fusion protein of full length human DLK (amino acids 1-859) and NFkB DNA binding domain; qPCR readout; duplicate
Summary of the method: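 Competition binding of full-length human DLK (aa 1-859)-NFkB DBD fusion, DNA-tagged, from HEK293 extracts against an immobilized ligand; 1 h at room temperature, 0.9% DMSO. Bead-bound kinase was quantified by qPCR. Kd came from an 11-point 3-fold series (top 30,000 nM), in duplicate, with Hill slope fixed at −1.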

| Compound | IC50 (human DLK [1]) [nM] | Kd (human DLK [2]) [nM] |
| --- | --- | --- |
| CCC(CC)c1nc(-c2cnc(N)c(C(F)(F)F)c2)cn1[C@H]1[C@@H]2CN(CCF)C[C@@H]21 [Example 125, 5-(1-((1R,5S,6s)-3-(2-fluoroethyl)-3-azabicyclo[3.1.0]hexan-6-yl)-2-(pentan-3-yl)-1H-imidazol-4-yl)-3-(trifluoromethyl)pyridin-2-amine] | 1290 | 120 |
| Nc1ncc(-c2cn([C@H]3[C@@H]4CN(C5COC5)C[C@@H]43)c(CC3CC3)n2)cc1OC(F)(F)F [Example 92, 5-(2-(cyclopropylmethyl)-1-((1R,5S,6s)-3-(oxetan-3-yl)-3-azabicyclo[3.1.0]hexan-6-yl)-1H-imidazol-4-yl)-3-(trifluoromethoxy)pyridin-2-amine] | 1820 | 55 |
| CC(C)c1nc(-c2cnc(N)c(C(F)(F)F)c2)cn1[C@H]1[C@@H]2CC(N3CCN(C)CC3)C[C@@H]21 (some centres unmarked) [Example 132, 5-(2-isopropyl-1-(3-(4-methylpiperazin-1-yl)bicyclo[3.1.0]hexan-6-yl)-1H-imidazol-4-yl)-3-(trifluoromethyl)pyridin-2-amine] | 909 | 22 |
| CC(C)c1nc(-c2cnc(N)c(OC(F)(F)F)c2)cn1C1CC2(CC(N3CCOCC3)C2)C1 (centres unmarked) [Example 39, 5-(2-isopropyl-1-(6-morpholinospiro[3.3]heptan-2-yl)-1H-imidazol-4-yl)-3-(trifluoromethoxy)pyridin-2-amine] | 771 | 30 |
| CC(=O)N1C[C@@H]2[C@H](C1)[C@H]2n1cc(-c2cnc(N)c(C(F)(F)F)c2)nc1C1CC1 [Example 72, 1-((1R,5S,6s)-6-(4-(6-amino-5-(trifluoromethyl)pyridin-3-yl)-2-cyclopropyl-1H-imidazol-1-yl)-3-azabicyclo[3.1.0]hexan-3-yl)ethan-1-one] | 2690 | 69 |
| CC(C)c1nc(-c2cnc(N)c(C(F)(F)F)c2)cn1[C@H]1[C@@H]2CC(N3CCN(C)CC3)C[C@@H]21 (some centres unmarked) [Example 144, 5-(2-isopropyl-1-(3-(4-methylpiperazin-1-yl)bicyclo[3.1.0]hexan-6-yl)-1H-imidazol-4-yl)-3-(trifluoromethyl)pyridin-2-amine] | 859 | 38 |
| CC(C)c1nc(-c2cnc(N)c(OC(F)(F)F)c2)cn1[C@H]1[C@@H]2CN(C3CCOCC3)C[C@@H]21 [Example 81, 5-(2-isopropyl-1-((1R,5S,6s)-3-(tetrahydro-2H-pyran-4-yl)-3-azabicyclo[3.1.0]hexan-6-yl)-1H-imidazol-4-yl)-3-(trifluoromethoxy)pyridin-2-amine] | 1510 | 99 |
| CC(C)c1nc(-c2cnc(N)c(OC(F)(F)F)c2)cn1[C@H]1C[C@H](N2CCOCC2)C1 [Example 43, 5-(2-isopropyl-1-((1r,3r)-3-morpholinocyclobutyl)-1H-imidazol-4-yl)-3-(trifluoromethoxy)pyridin-2-amine] | 804 | 120 |
| CC(C)Cc1nc(-c2cnc(N)c(C(F)(F)F)c2)cn1[C@H]1[C@@H]2CC(N3CCN(C)CC3)C[C@@H]21 (single isomer, unassigned) [Example 146a, 5-(2-isobutyl-1-(3-(4-methylpiperazin-1-yl)bicyclo[3.1.0]hexan-6-yl)-1H-imidazol-4-yl)-3-(trifluoromethyl)pyridin-2-amine] | 376 | 6.5 |
| Nc1ncc(-c2cn([C@H]3[C@@H]4CN(C5CCOCC5)C[C@@H]43)c(CC3CC3)n2)cc1OC(F)(F)F [Example 97, 5-(2-(cyclopropylmethyl)-1-((1R,5S,6s)-3-(tetrahydro-2H-pyran-4-yl)-3-azabicyclo[3.1.0]hexan-6-yl)-1H-imidazol-4-yl)-3-(trifluoromethoxy)pyridin-2-amine] | 1900 | 57 |
| CC(C)c1nc(-c2cnc(N)c(C(F)(F)F)c2)cn1C1CCC1 [Example 7, 5-[1-cyclobutyl-2-(propan-2-yl)-1H-imidazol-4-yl]-3-(trifluoromethyl)pyridin-2-amine] | 1070 | 66 |
| Nc1ncc(-c2cn([C@H]3[C@@H]4CC(N5CCCOCC5)C[C@@H]43)c(C3CC3)n2)cc1OC(F)(F)F (some centres unmarked) [Example 149, 5-(1-(3-(1,4-oxazepan-4-yl)bicyclo[3.1.0]hexan-6-yl)-2-cyclopropyl-1H-imidazol-4-yl)-3-(trifluoromethoxy)pyridin-2-amine] | 574 | 37 |
| CC(C)c1nc(-c2cnc(N)c(OC(F)(F)F)c2)cn1[C@H]1[C@@H]2CC(N3CCCOCC3)C[C@@H]21 (single isomer, unassigned) [Example 20a, 5-(1-(3-(1,4-oxazepan-4-yl)bicyclo[3.1.0]hexan-6-yl)-2-isopropyl-1H-imidazol-4-yl)-3-(trifluoromethoxy)pyridin-2-amine] | 965 | 15 |

Next, values leading:

| IC50 (human DLK [1]) [nM] | Kd (human DLK [2]) [nM] | Compound |
| --- | --- | --- |
| 827 | 22 | CC(C)c1nc(-c2cnc(N)c(OC(F)(F)F)c2)cn1[C@H]1[C@@H]2CC(N3CCOC[C@@H]3C)C[C@@H]21 (single isomer, unassigned) [Example 157b] |
| 747 | 30 | CC(C)c1nc(-c2cnc(N)c(OC(F)(F)F)c2)cn1[C@H]1[C@@H]2CC(N3CCN(CCF)CC3)C[C@@H]21 (single isomer, unassigned) [Example 156a, 5-(1-(3-(4-(2-fluoroethyl)piperazin-1-yl)bicyclo[3.1.0]hexan-6-yl)-2-isopropyl-1H-imidazol-4-yl)-3-(trifluoromethoxy)pyridin-2-amine] |
| 994 | 26 | CN1CCN(C2C[C@@H]3[C@H](C2)[C@H]3n2cc(-c3cnc(N)c(OC(F)(F)F)c3)nc2CC2CC2)CC1 (single isomer, unassigned) [Example 151a, 5-(2-(cyclopropylmethyl)-1-(3-(4-methylpiperazin-1-yl)bicyclo[3.1.0]hexan-6-yl)-1H-imidazol-4-yl)-3-(trifluoromethoxy)pyridin-2-amine] |
| 597 | 17 | Nc1ncc(-c2cn([C@H]3[C@@H]4CC(N5CCN(CCF)CC5)C[C@@H]43)c(C3CC3)n2)cc1OC(F)(F)F (single isomer, unassigned) [Example 154b, 5-(2-cyclopropyl-1-(3-(4-(2-fluoroethyl)piperazin-1-yl)bicyclo[3.1.0]hexan-6-yl)-1H-imidazol-4-yl)-3-(trifluoromethoxy)pyridin-2-amine] |
| 826 | 20 | CN1CCN(C2C[C@@H]3[C@H](C2)[C@H]3n2cc(-c3cnc(N)c(OC(F)(F)F)c3)nc2CC2CC2)CC1 (single isomer, unassigned) [Example 151b, 5-(2-(cyclopropylmethyl)-1-(3-(4-methylpiperazin-1-yl)bicyclo[3.1.0]hexan-6-yl)-1H-imidazol-4-yl)-3-(trifluoromethoxy)pyridin-2-amine] |
| 738 | 13 | CC(C)Cc1nc(-c2cnc(N)c(C(F)(F)F)c2)cn1[C@H]1[C@@H]2CC(N3CCN(CCF)CC3)C[C@@H]21 (single isomer, unassigned) [Example 160a, 5-(1-(3-(4-(2-fluoroethyl)piperazin-1-yl)bicyclo[3.1.0]hexan-6-yl)-2-isobutyl-1H-imidazol-4-yl)-3-(trifluoromethyl)pyridin-2-amine] |
